Assay results as given in patent US10993926B2, “Use of IDHP in preparation of drug or health product for prevention and treatment of coronary atherosclerosis disease” (NORTHWEST UNIVERSITY, priority 2016, dated 2021).
Like-named read-outs stand apart in the source and are kept apart here.

How the values were obtained:
[1] = tested on: mice; test: Acute toxicity test in mice with slow administration (tail vein); type: in vivo
Description: (§1) 4.2 Acute Toxicity Test in Mice with Slow Administration
(§2) After housing in the laboratory for 1 day, the test mice with qualified body weight were selected and randomly divided into groups according to body weight and sex, 10 for each group, half male and half female. According to the result of premeasurement, the absolute lethal dose was 2.4 g/kg. The mice were subjected to tail vein administration, the dose for the mice was calculated according to body weight. The doses were 2.4 g/kg, 2.2 g/kg, 2.0 g/kg, and 1.8 g/kg, respectively, and the drug delivery rate was calculated. The administration was completed within 10 minutes. The reactions of the mice were observed after the administration and the death of the mice was recorded within 14 days.
(§3) The main toxic reactions after intravenous administration were central inhibition, respiratory failure, etc. Most of the death occurred during the administration period. […] After 14 days of observation, the mortality rate of the mice was calculated.

[2] = as above; type: in vivo; conditions: both sexes, mouse, in vivo, intravenous, mice, tail vein, administration completed within 10 minutes, 14 days observation
Description: as §1, §2, §3

[3] = tested on: human umbilical vein endothelial cells (HUVEC); test: Migration of HUVEC, scratch method; type: cell-based; conditions: 10^−10 to 10^−7 M, 16 hours, FIG. 2
Description: 1.2 Detect Migration of Human Umbilical Vein Endothelial Cells (HUVEC) Promoted by IDHP—Scratch Method
Endothelial cells were seeded on a cover slip pre-coated with gelatin in a 24-well plate at a density of about 10^5 cells per well. After the cells attached to the cover slip and reached confluence, cells were starved in a medium without serum for 4 hours. A home-made tool was used to make scratch on the cover slip with cells. The cover slip was washed twice with PBS, and a medium containing drug was added, 600 μl/well. Control group was immediately fixed with ice-cold methanol at zero time point; rest of the cells were cultured for 16 hours, and then fixed with ice-cold methanol. Images were acquired under a microscope and subjected to statistics analysis.

[4] = tested on: primary human umbilical vein endothelial cells (HUVEC); test: Tube formation of HUVEC, Matrigel gel method; type: cell-based; conditions: 8 hours on Matrigel, compared with Ctrl control group
Description: 1.3 Detect Tube Formation of Human Umbilical Vein Endothelial Cells (HUVEC) Promoted by IDHP—Matrigel Gel Method
Pipette tips and 96-well plate were pre-cooled at −20° C. Matrigel gel was placed on ice and melted, and then added to the pre-cooled 96-well plate (60 μl/well). Avoid the formation of air bubbles. The plate was placed on ice for 5 minutes to level the Matrigel gel, and then put into a cell culture incubator for 30 minutes to solidify. Endothelial cells were added to the wells (5×10^4 cells/well) containing Matrigel gel, and fresh medium containing different concentrations of the drug was added, incubated at 37° C. for 8 hours. The plate was observed under a microscope, 5 fields of view were chosen at 0, 3, 6, 9 o'clock positions and the center of each well, the number of tubules and the integrity of the tubular structure were observed and images were acquired.

[5] = tested on: red blood cells; test: Hemolysis assay; type: cell-based, domestic rabbit; conditions: rabbit 2% red blood cells, IDHP groups 2 to 10 (10^−3 mol/l), 37±0.5° C., 0.5 h to 3 h
Description: Arterial blood from domestic rabbit was collected, fibrin was removed, red blood cells were washed with physiological saline and then formulated into a 2% red blood cell physiological saline solution. The test was operated according to Table 4, four parallel test tubes in each group.
After the above operation, the tubes were put in water bath at 37±0.5° C., one tube from each group was taken at 0.5 h, 1 h, 2 h and 3 h respectively, centrifuged at 3000 rpm for 15 minutes. Red blood cell hemolysis was observed, at the same time, the morphology of red blood cells was observed under light microscope.

[6] = tested on: human umbilical vein endothelial cells (HUVEC); test: Proliferation of human umbilical vein endothelial cells, CCK-8 method; type: cell-based; conditions: 10^−9 to 10^−7 M, 48 hours, compared with blank control, P<0.01, FIG. 1
Description: 1.1 Detect Proliferation of Human Umbilical Vein Endothelial Cells Promoted by IDHP—CCK-8 Method
Human umbilical vein endothelial cells were seeded in a 96-well plate at a density of approximately 2,500 cells per well. After the cells were culture for 24 hours, the medium was changed for a fresh medium containing drug, 100 μl/well, and the cells were continued culturing for 48 hours. 2 hours before the end of drug treatment, CCK-8 reagent was added to the culture medium in the dark, 10 μl per well. The culture was continued for 2 hours, and then the absorbance at 450 nm was determined with a microplate reader to calculate the cell proliferation rate.

[7] = tested on: human platelet aggregation induced by ADP; test: ADP-induced normal human platelet aggregation, turbidimetry; type: cell-based; conditions: human PRP, ADP 3 μmol/L, compared with ADP alone (Ctrl), FIG. 6
Description: (§4) The whole blood samples of healthy volunteers were collected into the anticoagulant tubes and centrifuged at 800 g for 5 minutes at room temperature. The light yellow supernatant was the platelet-rich plasma (PRP); the remaining solution was further centrifuged at 4000 g for 10 minutes at room temperature, and the supernatant obtained was platelet-poor plasma (PPP).
(§5) PRP was adjusted to 3×10^5 platelets/μl with PPP, 300 μl of adjusted PRP was added to 30 μl of PBS or different concentrations of IDHP and incubated at 37° C. for 3 minutes in a blood coagulation apparatus. Collagen or ADP at a final concentration of 3 μmol/L was added to initiate the aggregation reaction of platelets. The inhibitory effect of IDHP and clopidogrel on platelet aggregation was determined by turbidimetry.

[8] = tested on: human platelet aggregation induced by collagen; test: Collagen-induced normal human platelet aggregation, turbidimetry; type: cell-based; conditions: human PRP, collagen 3 μmol/L, compared with collagen alone (Ctrl), P<0.001, FIG. 6
Description: as §4, §5

[9] = tested on: mice; test: Acute toxicity test in mice with rapid administration (IV); type: in vivo
Description: (§6) 4.1 Acute Toxicity Test in Mice with Rapid Administration
(§7) Sixty mice were used, half male and half female, and randomly divided into 6 groups. […] The spacing between the concentrations was 1:0.9. After the animals were fasted for 12 hours, each group was subjected to IV administration, the volume was 20 ml/kg, and the administration was completed within 5 seconds for each animal.

[10] = as above; type: in vivo; conditions: both sexes, mouse, in vivo, iv, mice, IV, administration completed within 5 seconds
Description: as §6, §7

[11] = tested on: zebrafish intersegmental vessels; test: Angiogenesis in transgenic Tg (VEGFR2:GFP) zebrafish (intersegmental vessels); type: in vivo; conditions: for Length of Blood Vessels / Number of Blood Vessels: zebrafish ISV
Description: The transgenic Tg (VEGFR2:GFP) zebrafishes were cultured under the standard conditions of illumination for 14 hours/dark for 10 hours at 28° C. Healthy and mature zebrafishes were put into a breeding container at a ratio of female to male 1/1 or 1/2 for mating. The fertilized eggs were obtained at 9 to 10 o'clock the next day. The fertilized eggs were sterilized and washed, then transferred to zebrafish embryo culture medium and cultured at 28° C.
Drug solution was added to a 24-well culture plate, and 24 hpf embryos were carefully transferred to wells, 8-10 per well, and culture medium was added until a total volume of 2 ml to make sure that the final concentration of DMSO in the medium was not higher than 1%. After 24-hour drug treatment, the embryos were observed under a fluorescence microscope, and the total number of intersegmental vessels in trunk and tail were counted, and the relative generation rate of ISV in each administration group was calculated. Analysis of variance between groups was performed using SPSS software.

CC(C)OC(=O)C(O)Cc1ccc(O)c(O)c1 (stereo not drawn) [IDHP, β-(3,4-dihydroxyphenyl)-α-hydroxyisopropyl propionate]
absolute lethal dose ([1]; mice, premeasurement): 2.4 g/kg
anatomy findings ([1]; mouse, in vivo): No abnormal changes
LD50 at 14 days ([2]; read-out: LD50 95% confidence limit): 1960 to 2140 mg/kg
LD50 at 14 days ([2]; read-out: LD50 (Bliss method)): 2050 mg/kg
migration of human umbilical vein endothelial cells (HUVEC) [3]: could promote the migration
tube formation of primary HUVEC [4]: significantly promoted
red blood cell hemolysis [5]: no obvious hemolysis
proliferation of vascular endothelial cell [6]: significantly promoted
inhibitory effect on ADP-induced platelet aggregation [7]: significantly inhibit
inhibitory effect on collagen-induced platelet aggregation [8]: more significant
time until undead animals returned to normal ([9]; both, mouse, in vivo, iv): 10 min
Mortality Rate (%) ([9]; both, mouse, in vivo, iv, 320 mg/kg): 0%
Mortality Rate (%) ([9]; both, mouse, in vivo, iv, 375 mg/kg): 40%
Mortality Rate (%) ([9]; both, mouse, in vivo, iv, 400 mg/kg): 40%
Mortality Rate (%) ([9]; both, mouse, in vivo, iv, 480 mg/kg): 50%
Mortality Rate (%) ([9]; both, mouse, in vivo, iv, 530 mg/kg): 100%
Mortality Rate (%) ([9]; both, mouse, in vivo, iv, 629 mg/kg): 100%
time to death after the administration ([9]; mice, rapid IV, dead animals): ≤ 1 min
autopsy of dead mice, vital organs (heart, liver, spleen, lung, kidney, brain, stomach, intestine) ([9]; mouse, in vivo, iv): no abnormality
LD50 ([10]; read-out: LD50 95% confidence interval): 370 to 486 mg/kg
LD50 ([10]; read-out: LD50 (Bliss method, Feiller heterogeneity correction)): 424 ± 58 mg/kg
LD50 ([10]; read-out: LD50 (regression equation, without heterogeneity correction)): 424 mg/kg
growth of intersegmental vessels and posterior longitudinal blood vessels in zebrafish ([11]; 0.01, 0.1 and 1.0 μM, 24-hour treatment, FIG. 4): significantly promoted
relative generation rate of ISV ([11]; calculated from total vessel length vs PTK787 control and normal control, FIG. 5): dose-dependent relationship
Length of Blood Vessels ([11]; 0.01 μM): 287.4 ± 18.8 μm
Number of Blood Vessels ([11]; 0.01 μM): 25.0 ± 8.6
Length of Blood Vessels ([11]; 0.1 μM): 359.2 ± 58.2 μm
Number of Blood Vessels ([11]; 0.1 μM): 26.1 ± 3.3
Length of Blood Vessels ([11]; 1.0 μM): 447.6 ± 19.5 μm

Clc1ccc(Nc2nnc(Cc3ccncc3)c3ccccc23)cc1 [PTK787, reference compound]
Number of Blood Vessels ([11]; 0.1 μg/ml): 3.6 ± 1.3
Length of Blood Vessels ([11]; 0.1): 36.4 ± 14.2 μm

COC(=O)[C@H](c1ccccc1Cl)N1CCc2sccc2C1 [clopidogrel, reference compound]
inhibitory effect on ADP-induced platelet aggregation [7]: significantly inhibited

VEGF
Length of Blood Vessels ([11]; 10 ng/ml): 420.0 ± 54.2 μm
Number of Blood Vessels ([11]; 10 ng/ml): 29.3 ± 3.3
